Measured values: patent US7612087B2, “Heterocyclic compounds as inhibitors of beta-lactamases” (Novexel, priority 2002, dated 2009)
Read-outs that look alike come from different tables or passages of the source.

What was measured:
[1] = molecular target: T1, β-lactamase P99 (Enterobacter cloacae, UniProt P05364); test: biochemical
T1 construct: The β-lactamases are isolated from bacterial strains which are resistant to penicillins and cephalosporins; endogenous in cells; host or cells: Enterobacter cloacae 293HT6 (natural producer; French-press lysate, 100,000 g supernatant)
T1 sequence (P05364 21-381): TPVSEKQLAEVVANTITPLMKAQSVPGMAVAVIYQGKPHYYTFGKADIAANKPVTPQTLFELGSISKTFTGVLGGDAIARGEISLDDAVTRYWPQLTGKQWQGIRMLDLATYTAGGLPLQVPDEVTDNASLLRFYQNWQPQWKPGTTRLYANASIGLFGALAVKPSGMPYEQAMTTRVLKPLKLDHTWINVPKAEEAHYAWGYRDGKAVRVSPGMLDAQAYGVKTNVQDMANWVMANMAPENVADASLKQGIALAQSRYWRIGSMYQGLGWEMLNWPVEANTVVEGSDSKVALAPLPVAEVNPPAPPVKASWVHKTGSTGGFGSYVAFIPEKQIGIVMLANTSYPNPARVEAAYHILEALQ
Procedure: (§1) A. Preparation of the β-lactamases Tem-1 and P99
(§2) The β-lactamases are isolated from bacterial strains which are resistant to penicillins and cephalosporins (Tem1 and P99 are produced by E.coli 250HT21 and E.Cloacae 293HT6 respectively).
(§3) The bacteria are cultured at 37° C. in heart-brain culture at 37 g/l (DIFCO). They are harvested at the end of the exponential phase, cooled down and centrifuged. The bacterial pellets are taken up in sodium phosphate buffer 50 mM, pH 7.0 and centrifuged again. The bacteria are taken up in two volumes of the same buffer and lyzed using a French-Press maintained at 4° C. After centrifugation for 1 hour at 100,000 g, at 4° C., the supernatants containing the soluble fraction of the bacterial extracts are recovered and frozen at −80° C.
(§4) The method uses Nitrocefin (OXOID), cephalosporin chromogene as substrate, of which the product hydrolyzed by the B-lactamases is red and absorbs at 485 nm. Beta-lactamase activity is determined kinetically by measurement of the absorbance variation at 485 nm resulting from the hydrolysis of the substrate using a plate spectrophotometer (Spectra Max More Molecular Devices). The experiments are carried out at 37° C. The quantity of enzyme was normalized and the measurements are carried out at initial speed.
(§5) Two measurements were carried out, without preincubation and with preincubation of the enzyme and inhibitor (5 mn), in order to test the irreversibility of the reaction. The products are tested at 6 or 8 concentrations in duplicate. The reaction mixture contains 100 μM of Nitrocefin and 50 mM sodium phosphate buffer pH7.0.
(§6) The hydrolysis speeds are measured with and without inhibitor. The concentration of inhibitor which inhibits by 50% the hydrolysis reaction of Nitrocefin by the enzyme (CI50) is determined. The data is processed using GraFit software (Erathycus Software).

[2] = test system: S. aureus 011GO66 (PeniR); test: MIC, micro-dilution in liquid medium, β-lactamine with product at 5 mg/l; format: cell-based; conditions: compound at 5 mg/l, 24 hours at 37° C.; for MIC of Cefotaxime in combination with the compound: Trial 1, 011GO66 S. aureus PeniR; for MIC of Piperacillin in combination with the compound: Trial 1, 011GO66 peniR
Procedure: (§7) The operation is carried out as follows, using the so-called micro-dilution in liquid medium method.
(§8) A series of concentrations of the β-lactamine is prepared in the presence of a constant concentration (5 mg/l) of the product to be studied, each is then seeded with various bacterial strains.
(§9) After incubation for 24 hours in a heating chamber at 37° C., the growth inhibition is evaluated by the absence of any bacterial development, which allows the minimal inhibitory concentrations (MIC) for each strain to be determined, expressed in milligrams/l.

[3] = test system: E. coli 250HT26 (SHV1); test: as above; format: cell-based; conditions: compound at 5 mg/l, 24 hours at 37° C.; for MIC of Cefotaxime in combination with the compound: Trial 6, 250HT26 E. coli SHV1; for MIC of Piperacillin in combination with the compound: Trial 6, 250HT26 SHV1
Procedure: as §7, §8, §9

[4] = test system: Serratia 301HT6; test: as above; format: cell-based; conditions: compound at 5 mg/l; Trial 10, 301HT6 Serratia; 24 hours at 37° C.
Procedure: as §7, §8, §9

[5] = test system: E. coli 250HT22 (Tem2); test: as above; format: cell-based; conditions: compound at 5 mg/l, 24 hours at 37° C.; for MIC of Cefotaxime in combination with the compound: Trial 3, 250HT22 E. coli Tem2; for MIC of Piperacillin in combination with the compound: Trial 3, 250HT22 Tem2
Procedure: as §7, §8, §9

[6] = test system: E. coli 250BE1 (SHV4); test: as above; format: cell-based; conditions: compound at 5 mg/l, 24 hours at 37° C.; for MIC of Cefotaxime in combination with the compound: Trial 7, 250BE1 E. coli SHV4; for MIC of Piperacillin in combination with the compound: Trial 7, 250BE1 SHV4
Procedure: as §7, §8, §9

[7] = test system: P. aeruginosa 391HT8 (PSE); test: as above; format: cell-based; conditions: compound at 5 mg/l, 24 hours at 37° C.; for MIC of Cefotaxime in combination with the compound: Trial 12, 391HT8 P. aeruginosa PSE; for MIC of Piperacillin in combination with the compound: Trial 12, 391HT8 PSE
Procedure: as §7, §8, §9

[8] = test system: E. cloacae 293HT6 (Class C); test: as above; format: cell-based; conditions: compound at 5 mg/l, 24 hours at 37° C.; for MIC of Piperacillin in combination with the compound: Trial 9, 293HT6 Class; for MIC of Cefotaxime in combination with the compound: Trial 9, 293HT6 E. cloacae Class C
Procedure: as §7, §8, §9

[9] = test system: E. coli 250HT23 (Class D); test: as above; format: cell-based; conditions: compound at 5 mg/l, 24 hours at 37° C.; for MIC of Piperacillin in combination with the compound: Trial 8, 250HT23 Class D; for MIC of Cefotaxime in combination with the compound: Trial 8, 250HT23 E. coli Class D
Procedure: as §7, §8, §9

[10] = test system: P. aeruginosa 391HT7 (PSE); test: as above; format: cell-based; conditions: compound at 5 mg/l, 24 hours at 37° C.; for MIC of Cefotaxime in combination with the compound: Trial 11, 391HT7 P. aeruginosa PSE; for MIC of Piperacillin in combination with the compound: Trial 11, 391HT7 PSE
Procedure: as §7, §8, §9

[11] = test system: E. coli 250SJ1 (Tem7); test: as above; format: cell-based; conditions: compound at 5 mg/l, 24 hours at 37° C.; for MIC of Cefotaxime in combination with the compound: Trial 5, 250SJ1 E. coli Tem7; for MIC of Piperacillin in combination with the compound: Trial 5, 250SJ1 Tem7
Procedure: as §7, §8, §9

[12] = test system: E. coli 250HT21 (Tem1); test: as above; format: cell-based; conditions: compound at 5 mg/l, 24 hours at 37° C.; for MIC of Cefotaxime in combination with the compound: Trial 2, 250HT21 E. coli Tem1; for MIC of Piperacillin in combination with the compound: Trial 2, 250HT21 Tem1
Procedure: as §7, §8, §9

[13] = test system: E. coli 250CF1 (Tem3); test: microbe, parasite or virus in culture; format: cell-based; conditions: compound at 5 mg/l, 24 hours at 37° C.; for MIC of Cefotaxime in combination with the compound: Trial 4, 250CF1 E. coli Tem3; for MIC of Piperacillin in combination with the compound: Trial 4, 250CF1 Tem3
Procedure: as §7, §8, §9

[14] = molecular target: T2, β-lactamase TEM1 (Escherichia coli, UniProt P62593); test: Inhibition of isolated β-lactamase Tem-1 (Nitrocefin hydrolysis); format: biochemical, E.coli 250HT21; conditions: 100 μM Nitrocefin, 50 mM sodium phosphate buffer pH7.0, 37° C.
T2 construct: The β-lactamases are isolated from bacterial strains which are resistant to penicillins and cephalosporins; endogenous in cells; host or cells: E. coli 250HT21 (natural producer; French-press lysate, 100,000 g supernatant)
T2 sequence (P62593 24-286 limits assumed): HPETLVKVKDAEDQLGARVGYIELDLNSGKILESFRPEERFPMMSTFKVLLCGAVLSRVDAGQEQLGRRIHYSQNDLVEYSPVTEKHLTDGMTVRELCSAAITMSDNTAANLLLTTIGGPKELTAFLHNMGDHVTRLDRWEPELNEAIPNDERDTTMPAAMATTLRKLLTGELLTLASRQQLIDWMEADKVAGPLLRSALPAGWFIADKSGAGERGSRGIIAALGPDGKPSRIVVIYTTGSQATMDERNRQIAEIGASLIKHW
Procedure: as §1, §2, §3, §4, §5, §6

[15] = 100 μM Nitrocefin, 50 mM sodium phosphate buffer pH7.0, 37° C., read-out: IC50 nM/P99

| SMILES | MIC of Cefotaxime in combination with the compound [2] | MIC of Piperacillin in combination with the compound [2] | MIC of Cefotaxime in combination with the compound [3] | MIC of Piperacillin in combination with the compound [3] | MIC of Cefotaxime in combination with the compound [4] | MIC of Piperacillin in combination with the compound [4] | MIC of Cefotaxime in combination with the compound [5] | MIC of Piperacillin in combination with the compound [5] | MIC of Cefotaxime in combination with the compound [6] | MIC of Piperacillin in combination with the compound [6] | MIC of Cefotaxime in combination with the compound [7] | MIC of Piperacillin in combination with the compound [7] | MIC of Piperacillin in combination with the compound [8] | MIC of Cefotaxime in combination with the compound [8] | MIC of Piperacillin in combination with the compound [9] | MIC of Cefotaxime in combination with the compound [9] | MIC of Cefotaxime in combination with the compound [10] | MIC of Piperacillin in combination with the compound [10] | MIC of Cefotaxime in combination with the compound [11] | MIC of Piperacillin in combination with the compound [11] | further results |
| --- | --- | --- | --- | --- | --- | --- | --- | --- | --- | --- | --- | --- | --- | --- | --- | --- | --- | --- | --- | --- | --- |
| NC(=O)[C@@H]1CC[C@@H]2CN1C(=O)N2OS(=O)(=O)O (relative stereo) [Example 33, trans-7-oxo-6-(sulphooxy)-1,6-diazabicyclo[3.2.1]octane-2-carboxamide] | 2.5 µg/mL | 1.2 µg/mL | <=0.04 μg/ml | 1.2 µg/mL | 0.08 µg/mL | 0.6 µg/mL | <=0.04 μg/ml | 0.6 µg/mL | <=0.04 μg/ml | 1.2 µg/mL | 20 µg/mL | 10 µg/mL | 0.6 µg/mL | <=0.04 μg/ml | 2.5 µg/mL | <=0.04 μg/ml | 20 µg/mL | >40 µg/mL | <=0.04 μg/ml | 0.6 µg/mL | IC50 [1]: 330 nM; MIC of Cefotaxime in combination with the compound [12]: <=0.04 μg/ml; MIC of Piperacillin in combination with the compound [12]: 0.3 µg/mL; MIC of Cefotaxime in combination with the compound [13]: <=0.04 μg/ml; MIC of Piperacillin in combination with the compound [13]: 1.2 µg/mL |
| O=C(NCc1ccccc1)[C@H]1CC[C@@H]2CN1C(=O)N2OS(=O)(=O)[O-].[Na+] (relative stereo) [Example 34, sodium salt of trans-7-oxo-N-(phenylmethyl)-6-(sulphooxy)-1,6-diazabicyclo[3.2.1]octane-2-carboxamide] | 1.2 µg/mL | 0.6 µg/mL | <=0.04 μg/ml | 20 µg/mL | <=0.04 μg/ml | 1.2 µg/mL | <=0.04 μg/ml | >40 µg/mL | 0.08 µg/mL | >40 µg/mL | 20 µg/mL | >40 µg/mL | 10 µg/mL | 0.6 µg/mL | 40 µg/mL | <=0.04 μg/ml | 20 µg/mL | >40 µg/mL | <=0.04 μg/ml | >40 µg/mL | IC50 [1, 15]: 32 nM; MIC of Cefotaxime in combination with the compound [12]: <=0.04 μg/ml; MIC of Piperacillin in combination with the compound [12]: 5 µg/mL; IC50 [14]: 27 nM; MIC of Cefotaxime in combination with the compound [13]: 0.15 µg/mL; MIC of Piperacillin in combination with the compound [13]: >40 µg/mL |
| O=C(NCc1ccccn1)[C@H]1CC[C@@H]2CN1C(=O)N2OS(=O)(=O)[O-].[Na+] (relative stereo) [Example 35, sodium salt of trans-7-oxo-N-(2-pyridinylmethyl)-6-(sulphooxy)-1,6-diazabicyclo[3.2.1]octane-2-carboxamide] | 1.2 µg/mL | 1.2 µg/mL | <=0.04 μg/ml | 5 µg/mL | <=0.04 μg/ml | 1.2 µg/mL | <=0.04 μg/ml | 20 µg/mL | 0.08 µg/mL | 20 µg/mL | 20 µg/mL | >40 µg/mL | 5 µg/mL | 0.6 µg/mL | 10 µg/mL | <=0.04 μg/ml | 20 µg/mL | >40 µg/mL | <=0.04 μg/ml | 5 µg/mL | IC50 [1, 15]: 56 nM; MIC of Cefotaxime in combination with the compound [12]: <=0.04 μg/ml; MIC of Piperacillin in combination with the compound [12]: 2.5 µg/mL; IC50 [14]: 53 nM; MIC of Cefotaxime in combination with the compound [13]: 0.15 µg/mL; MIC of Piperacillin in combination with the compound [13]: 10 µg/mL |
